The source of these data is PMC10914731, “Homo-BacPROTAC-induced degradation of ClpC1 as a strategy against drug-resistant mycobacteria” (Nature Communications, 2024).

Converted amounts (≈) assume the structure as drawn. “And” between values parts separate entries of the source, which are not always exact repeats. Equal values may be shown once. *1 amine or outer side, *2 acyl side, *3 side chain or, on linkers, in order; H or OH if unused. Where a SMILES comes first, the peptide text is derived from it. [ ]: non-standard residue; d: D form. X1 = C#CCn1cc(C[C@H](N[*:1])C(=O)[*:2])c2ccccc21; NMeLeu(5-OH,4R) = CN[C@@H](C[C@@H](C)CO)C(=O)O; Phe(βR-OMe) = CO[C@H](c1ccccc1)[C@H](N)C(=O)O; Trp(1-Me) = Cn1cc(C[C@H](N)C(=O)O)c2ccccc21; NMeL = CN[C@@H](CC(C)C)C(=O)O; Pra = C#CC[C@H](N)C(=O)O

The test system of the test is Mtb (RpoB S450L) ATCC 35838. It counts as cell-based, Mycobacterium tuberculosis.

As for `C#CCn1cc(C[C@@H]2NC(=O)[C@H](C(C)C)NC(=O)[C@H](CC(C)C)N(C)C(=O)[C@H](C(C)C)NC(=O)[C@H]([C@H](OC)c3ccccc3)NC(=O)[C@H](C)NC(=O)[C@H](C[C@@H](C)CO)N(C)C2=O)c2ccccc21` [Compound 5] (cyclo(A[Phe(βR-OMe)]V[NMeL]V[X1][NMeLeu(5-OH,4R)])), the MIC (usually the lowest concentration that inhibits growth of the organism) was determined as 0.4 ± 0.0 µM (≈ 0.376 µg/mL). This counts as sub-micromolar. Next, `COC(c1ccccc1)C1NC(=O)C(C)NC(=O)C(CC(C)CO)N(C)C(=O)C(Cc2cn(Cc3cn(CCOCCOCCOCCOCCn4cc(Cn5cc(CC6NC(=O)C(C(C)C)NC(=O)C(CC(C)C)N(C)C(=O)C(C(C)C)NC(=O)C(C(OC)c7ccccc7)NC(=O)C(C)NC(=O)C(CC(C)CO)N(C)C6=O)c6ccccc65)nn4)nn3)c3ccccc23)NC(=O)C(C(C)C)NC(=O)C(CC(C)C)N(C)C(=O)C(C(C)C)NC1=O` (stereo not shown) [Compound 8]: 0.2 ± 0.0 µM (≈ 0.434 µg/mL). In turn, `C#CC[C@@H]1NC(=O)[C@H](CC(C)C)N(C)C(=O)[C@H](C(C)C)NC(=O)[C@H]([C@H](OC)c2ccccc2)NC(=O)[C@H](C)NC(=O)[C@H](C[C@@H](C)CO)N(C)C(=O)[C@H](Cc2cn(C)c3ccccc23)NC1=O` [Compound 10] (cyclo(A[Phe(βR-OMe)]V[NMeL][Pra][Trp(1-Me)][NMeLeu(5-OH,4R)])) gave an MIC of 1.6 ± 0.0 µM (≈ 1.46 µg/mL). Next, `COC(c1ccccc1)C1NC(=O)C(C)NC(=O)C(CC(C)CO)N(C)C(=O)C(Cc2cn(C)c3ccccc23)NC(=O)C(Cc2cn(CCCCCn3cc(CC4NC(=O)C(CC(C)C)N(C)C(=O)C(C(C)C)NC(=O)C(C(OC)c5ccccc5)NC(=O)C(C)NC(=O)C(CC(C)CO)N(C)C(=O)C(Cc5cn(C)c6ccccc56)NC4=O)nn3)nn2)NC(=O)C(CC(C)C)N(C)C(=O)C(C(C)C)NC1=O` (stereo not shown) [Compound 12]: 0.2 ± 0.0 µM (≈ 0.396 µg/mL); `NNC(=O)c1ccncc1` [Isoniazid]: 0.5 ± 0.0 µM and 0.45 µM. Then `COc1c(N2C[C@@H]3CCCN[C@@H]3C2)c(F)cc2c(=O)c(C(=O)O)cn(C3CC3)c12` [Moxifloxacin, reference compound], with 0.3 ± 0.0 µM and 0.31 µM; and `CO[C@H]1/C=C/O[C@@]2(C)Oc3c(C)c(O)c4c(O)c(c(/C=N/N5CCN(C)CC5)c(O)c4c3C2=O)NC(=O)/C(C)=C\C=C\[C@H](C)[C@H](O)[C@@H](C)[C@@H](O)[C@@H](C)[C@H](OC(C)=O)[C@@H]1C` [Rifampicin, reference compound], with >38.9 µM and >38.88 µM.
